pIC50: −log10 of the molar value. Each block holds one molecule with its values, some of them ahead of it. Activity calls are given as the source filed them. The rule behind the calls is not given here.
Experiments:
[1] = species: Mus musculus; test: Induction of quinone reductase specific activity in mouse Hepa1c1c7 cells using 2,6-DCIP as substrate at 10 uM measured for 1 min relative to control; format: cell-based
[2] = species: Mus musculus; test: Ratio of quinone reductase specific activity in mouse Hepa1c1c7 cells to quinone reductase specific activity in mouse mutant BpRc1 cells; format: cell-based
[3] = tested on: Salmonella typhimurium; test: Mutagenicity in Salmonella typhimurium TA98 assessed as revertant colonies at 6 to 500 ug/plate by Ames test in absence of mouse liver S9 fraction; format: toxicity, organism-based; conditions: salmonella enterica subsp. enterica serovar typhimurium
[4] = tested on: Salmonella typhimurium; test: Mutagenicity in Salmonella typhimurium TA98 assessed as revertant colonies at 6 to 500 ug/plate by Ames test in presence of mouse liver S9 fraction; format: toxicity, organism-based; conditions: salmonella enterica subsp. enterica serovar typhimurium
[5] = species: Mus musculus; test: Induction of quinone reductase specific activity in mouse mutant BpRc1 cells expressing defective translocator receptor Arnt using 2,6-DCIP as substrate at 10 uM measured for 1 min relative to control; format: cell-based
[6] = tested on: Rattus norvegicus; test: Toxicity in Wistar rat assessed as change in body weight at 15 mg/kg/day, po for two weeks; format: organism-based; conditions: in vivo
[7] = Toxicity in Wistar rat assessed as survival at 15 mg/kg/day, po for two weeks; format: organism-based; conditions: in vivo
[8] = tested on: Rattus norvegicus; test: Toxicity in Wistar rat assessed as change in behaviors at 15 mg/kg/day, po for two weeks; format: organism-based; conditions: in vivo
[9] = tested on: Rattus norvegicus; test: Induction of quinone reductase activity in cytosolic fraction of Wistar rat liver at 15 mg/kg/day, po for two weeks using 2,6-DCIP as substrate measured for 1 min relative to control; format: functional
[10] = tested on: MCF7; test: Cytotoxicity against human MCF7 cells at 100 uM after 24 hrs by SRB assay; format: functional, cell-based
[11] = tested on: HT-29; test: Cytotoxicity against human HT-29 cells at 100 uM after 24 hrs by SRB assay; format: functional, cell-based
[12] = tested on: Salmonella typhimurium; test: Mutagenicity in Salmonella typhimurium TA98 assessed as revertant colonies at 0.02 to 2 ug/plate by Ames test in absence of mouse liver S9 fraction; format: toxicity, organism-based; conditions: salmonella enterica subsp. enterica serovar typhimurium
[13] = tested on: Salmonella typhimurium; test: Mutagenicity in Salmonella typhimurium TA98 assessed as revertant colonies at 0.02 to 2 ug/plate by Ames test in presence of mouse liver S9 fraction; format: toxicity, organism-based; conditions: salmonella enterica subsp. enterica serovar typhimurium
[14] = Chemoprotective index, ratio of IC50 for mouse Hepa1c1c7 cells to CD for quinone reductase activity in mouse Hepa1c1c7 cells
[15] = Cytotoxicity against mouse Hepa1c1c7 cells after 48 hrs by SRB assay; format: cell-based; conditions: Hepa-1c1c7, 48 h
[16] = tested on: Rattus norvegicus; test: Induction of CYP450 activity in microsomal fraction of Wistar rat liver at 15 mg/kg/day, po for two weeks using 7-ethoxyresorufine as substrate measured for 5 mins relative to control; format: ADME, organism-based; conditions: in vivo
[17] = species: Mus musculus; test: Induction of quinone reductase activity in mouse mutant BpRc1 cells using 2,6-DCIP as substrate measured for 1 min; format: cell-based
[18] = tested on: Rattus norvegicus; test: Induction of quinone reductase activity in cytosolic fraction of Wistar rat colon at 15 mg/kg/day, po for two weeks using 2,6-DCIP as substrate at 10 uM measured for 1 min relative to control; format: functional
[19] = tested on: Rattus norvegicus; test: Induction of glutathione S-transferase activity in cytosolic fraction of Wistar rat liver at 15 mg/kg/day, po for two weeks using CDNB as substrate measured for 1 min relative to control; format: functional
[20] = tested on: Salmonella typhimurium; test: Mutagenicity in Salmonella typhimurium TA98 assessed as revertant colonies at 5 to 400 ug/plate by Ames test in absence of mouse liver S9 fraction; format: toxicity, organism-based; conditions: salmonella enterica subsp. enterica serovar typhimurium
[21] = species: Mus musculus; test: Induction of quinone reductase specific activity in mouse Hepa1c1c7 cells assessed as concentration required to double enzyme specific activity using 2,6-DCIP as substrate measured for 1 min; format: cell-based
[22] = Chemoprotective index, ratio of IC50 for mouse mutant BpRc1 cells to CD for quinone reductase activity in mouse mutant BpRc1 cells
[23] = tested on: Rattus norvegicus; test: Induction of glutathione S-transferase activity in cytosolic fraction of Wistar rat colon at 15 mg/kg/day, po for two weeks using CDNB as substrate measured for 1 min relative to control; format: functional
[24] = species: Mus musculus; test: Ratio of induction of quinone reductase specific activity in mouse mutant BpRc1 cells to mouse Hepa1c1c7 cells; format: cell-based
[25] = tested on: Salmonella typhimurium; test: Mutagenicity in Salmonella typhimurium TA98 assessed as revertant colonies at 5 to 400 ug/plate by Ames test in presence of mouse liver S9 fraction; format: toxicity, organism-based; conditions: salmonella enterica subsp. enterica serovar typhimurium
[26] = molecular target: T1, Nuclear factor erythroid 2-related factor 2 (Mus musculus) (UniProt Q60795); test: Induction of Nrf2 nuclear translocation in mouse Hepa1c1c7 cells assessed as protein accumulation in nucleus at 20 uM by DAPI staining based immunofluorescence assay; format: cell-based
T1 sequence (whole entry): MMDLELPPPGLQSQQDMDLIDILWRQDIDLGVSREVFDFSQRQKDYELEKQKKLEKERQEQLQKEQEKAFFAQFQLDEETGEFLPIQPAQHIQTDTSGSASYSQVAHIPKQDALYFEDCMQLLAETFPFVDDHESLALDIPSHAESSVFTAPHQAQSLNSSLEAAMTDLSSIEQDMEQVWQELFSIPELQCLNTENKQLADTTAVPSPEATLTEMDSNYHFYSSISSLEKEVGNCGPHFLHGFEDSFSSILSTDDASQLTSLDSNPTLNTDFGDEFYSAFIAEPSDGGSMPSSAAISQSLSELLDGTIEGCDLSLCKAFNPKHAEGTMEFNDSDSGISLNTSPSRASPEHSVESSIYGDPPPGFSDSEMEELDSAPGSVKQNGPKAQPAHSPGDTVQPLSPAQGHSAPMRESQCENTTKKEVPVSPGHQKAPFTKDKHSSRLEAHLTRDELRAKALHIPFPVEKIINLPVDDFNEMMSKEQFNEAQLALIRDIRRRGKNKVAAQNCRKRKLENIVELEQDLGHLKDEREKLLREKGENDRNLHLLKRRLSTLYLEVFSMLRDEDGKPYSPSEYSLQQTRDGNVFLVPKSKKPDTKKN

[27] = Cytotoxicity against mouse mutant BpRc1 cells after 48 hrs by SRB assay; format: cell-based; conditions: BPrc1, 48 h
[28] = tested on: Rattus norvegicus; test: Induction of CYP450 activity in microsomal fraction of Wistar rat colon at 15 mg/kg/day, po for two weeks using 7-ethoxyresorufine as substrate measured for 5 mins; format: ADME, organism-based; conditions: in vivo
[29] = tested on: Salmonella typhimurium; test: Mutagenicity in Salmonella typhimurium TA98 assessed as revertant colonies at 0.5 to 30 ug/plate by Ames test in presence of mouse liver S9 fraction; format: toxicity, organism-based; conditions: salmonella enterica subsp. enterica serovar typhimurium
[30] = tested on: Salmonella typhimurium; test: Mutagenicity in Salmonella typhimurium TA98 assessed as revertant colonies at 0.5 to 30 ug/plate by Ames test in absence of mouse liver S9 fraction; format: toxicity, organism-based; conditions: salmonella enterica subsp. enterica serovar typhimurium

SMILES: O=C(/C=C/c1ccc2c(c1)no[n+]2[O-])c1ccccc1O
fold change (FC) [1]: 1.39 | Ratio [2]: 1.18 | Activity [3]: Non-toxic | Activity [4]: Non-toxic | fold change (FC) [5]: 1.18

SMILES: O=C(/C=C/c1ccc(Br)cc1)c1ccccc1O
Activity [6]: Non-toxic | survival at 2 weeks [7]: 100% | Activity [8]: Non-toxic | Activity [9]: 128%

SMILES: Cc1c(/C=C/C(=O)c2ccccc2)no[n+]1[O-]
fold change (FC) [1]: 1.35 | Activity [10]: Active | Activity [11]: Active | Activity [12]: Non-toxic | Ratio [2]: 1.34 | Activity [13]: Non-toxic | fold change (FC) [5]: 1.01

SMILES: O=C(/C=C/c1c(-c2ccccc2)no[n+]1[O-])c1ccccc1
fold change (FC) [1]: 1.9 | Ratio [14]: 3 | pIC50 [15]: 4.44 | Activity [16]: 60% | Activity [6]: Non-toxic | Activity [10]: Active | survival at 2 weeks [7]: 100% | Activity [11]: Active | CD [17]: 13 µM | Activity [18]: 12% | Activity [19]: 180% | Ratio [2]: 1.2 | Activity [8]: Non-toxic | Activity [20]: Non-toxic | CD [21]: 12 µM | Ratio [22]: 2.9 | Activity [23]: 13% | Ratio [24]: 1.1 | Activity [25]: Non-toxic | Activity [26]: Active | pIC50 [27]: 4.42 | Activity [9]: 110% | Activity [28]: Not Active | fold change (FC) [5]: 1.58

SMILES: O=C(/C=C/c1c(-c2ccccc2)no[n+]1[O-])c1ccc2ccccc2c1
fold change (FC) [1]: 2.49 | Activity [29]: Non-toxic | Activity [30]: Non-toxic | Ratio [2]: 2.35 | fold change (FC) [5]: 1.06

Activity [26]: Active
SMILES: CC(C)(C)c1cc(O)ccc1O [E319]
Ratio [14]: 147 | pIC50 [15]: 3.83 | CD [17]: 6 µM | CD [21]: 1 µM | Ratio [22]: 10 | Ratio [24]: 6 | pIC50 [27]: 4.22

SMILES: Cc1c(/C=C/C(=O)c2ccccc2O)no[n+]1[O-]
fold change (FC) [1]: 1.49 | Activity [10]: Active | Activity [11]: Active | Ratio [2]: 1.26 | Activity [3]: Non-toxic | Activity [4]: Non-toxic | fold change (FC) [5]: 1.18

Source: ChEMBL document CHEMBL3774337, “In vivo phase II-enzymes inducers, as potential chemopreventive agents, based on the chalcone and furoxan skeletons” (Bioorg Med Chem, 2016)
